Measurements published in ChEMBL document CHEMBL4330071 (Eur J Med Chem, 2019).

Columns and labels:
[1] = target: Tyrosine-protein kinase ABL1 (Homo sapiens, UniProt P00519, H396P); test: Binding affinity to human non-phosphorylated ABL1 H396P mutant (S229 to K512 residues) expressed in mammalian expression system after 60 mins by Kinomescan method
[2] = target: T1, Tyrosine-protein kinase ABL1 (Homo sapiens, UniProt P00519); test: Binding affinity to wild-type human phosphorylated ABL1 (S229 to K512 residues) expressed in mammalian expression system after 60 mins by Kinomescan method
MV4-11 [3] = test: Induction of apoptosis in human MV4-11 cells assessed as early apoptotic cells at 0.02 uM after 24 hrs by Annexin V-FITC/propidium iodide staining based flow cytometric analysis (reference value: 3.39%); assay type: functional
MV4-11 [4] = test: Induction of apoptosis in human MV4-11 cells assessed as early apoptotic cells at 0.5 uM after 24 hrs by Annexin V-FITC/propidium iodide staining based flow cytometric analysis (reference value: 3.39%); assay type: functional
K562 = test: Growth inhibition of FLT3 null human K562 cells at 10 uM after 72 hrs by CellTiter-Glo assay relative to control; assay type: functional; conditions: K562, 72 h, read-out: GI
[5] = target: Mast/stem cell growth factor receptor Kit (Homo sapiens, UniProt P10721); test: Inhibition of human c-KIT assessed as residual activity at 10 uM using poly[Glu:Tyr] (4:1) as substrate preincubated for 20 mins followed by [gamma-33P]-ATP addition and measured after 120 mins by Hotspot assay relative to control
Sequence of Mast/stem cell growth factor receptor Kit (P10721 whole entry): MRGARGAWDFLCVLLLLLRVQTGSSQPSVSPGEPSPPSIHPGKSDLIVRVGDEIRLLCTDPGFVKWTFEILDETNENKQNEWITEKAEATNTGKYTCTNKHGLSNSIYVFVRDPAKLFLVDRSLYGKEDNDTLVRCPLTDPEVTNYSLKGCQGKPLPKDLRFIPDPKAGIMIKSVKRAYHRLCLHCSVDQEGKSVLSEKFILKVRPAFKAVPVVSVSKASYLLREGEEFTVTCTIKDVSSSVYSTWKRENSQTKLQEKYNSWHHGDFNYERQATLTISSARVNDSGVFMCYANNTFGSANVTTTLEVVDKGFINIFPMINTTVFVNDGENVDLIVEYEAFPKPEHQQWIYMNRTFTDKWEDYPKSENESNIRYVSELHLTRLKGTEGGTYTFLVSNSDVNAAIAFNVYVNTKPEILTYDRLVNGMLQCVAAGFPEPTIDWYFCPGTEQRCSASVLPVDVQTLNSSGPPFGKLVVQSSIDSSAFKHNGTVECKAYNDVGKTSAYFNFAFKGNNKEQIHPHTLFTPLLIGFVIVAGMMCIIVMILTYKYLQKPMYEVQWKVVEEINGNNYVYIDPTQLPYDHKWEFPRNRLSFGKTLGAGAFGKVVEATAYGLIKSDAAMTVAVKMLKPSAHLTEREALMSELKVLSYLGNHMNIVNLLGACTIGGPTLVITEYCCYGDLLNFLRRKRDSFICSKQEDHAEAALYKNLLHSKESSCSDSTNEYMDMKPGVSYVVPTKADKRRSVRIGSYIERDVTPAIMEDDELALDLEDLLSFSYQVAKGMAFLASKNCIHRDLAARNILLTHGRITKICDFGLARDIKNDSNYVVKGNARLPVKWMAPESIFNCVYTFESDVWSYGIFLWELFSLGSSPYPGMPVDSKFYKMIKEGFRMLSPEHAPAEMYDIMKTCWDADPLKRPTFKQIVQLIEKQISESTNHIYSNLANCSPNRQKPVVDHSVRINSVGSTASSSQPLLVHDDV

[6] = target: Mitogen-activated protein kinase 3 (Homo sapiens) (UniProt P27361); test: Inhibition of human ERK1 assessed as residual activity at 10 uM using MBP as substrate preincubated for 20 mins followed by [gamma-33P]-ATP addition and measured after 120 mins by Hotspot assay relative to control
[7] = target: Macrophage colony-stimulating factor 1 receptor (Homo sapiens, UniProt P07333); test: Binding affinity to wild-type human partial length autoinhibited CSF1R (Y538 to S939 residues) expressed in mammalian expression system after 60 mins by Kinomescan method
Sequence of Macrophage colony-stimulating factor 1 receptor (P07333 whole entry, the tested form may be a part): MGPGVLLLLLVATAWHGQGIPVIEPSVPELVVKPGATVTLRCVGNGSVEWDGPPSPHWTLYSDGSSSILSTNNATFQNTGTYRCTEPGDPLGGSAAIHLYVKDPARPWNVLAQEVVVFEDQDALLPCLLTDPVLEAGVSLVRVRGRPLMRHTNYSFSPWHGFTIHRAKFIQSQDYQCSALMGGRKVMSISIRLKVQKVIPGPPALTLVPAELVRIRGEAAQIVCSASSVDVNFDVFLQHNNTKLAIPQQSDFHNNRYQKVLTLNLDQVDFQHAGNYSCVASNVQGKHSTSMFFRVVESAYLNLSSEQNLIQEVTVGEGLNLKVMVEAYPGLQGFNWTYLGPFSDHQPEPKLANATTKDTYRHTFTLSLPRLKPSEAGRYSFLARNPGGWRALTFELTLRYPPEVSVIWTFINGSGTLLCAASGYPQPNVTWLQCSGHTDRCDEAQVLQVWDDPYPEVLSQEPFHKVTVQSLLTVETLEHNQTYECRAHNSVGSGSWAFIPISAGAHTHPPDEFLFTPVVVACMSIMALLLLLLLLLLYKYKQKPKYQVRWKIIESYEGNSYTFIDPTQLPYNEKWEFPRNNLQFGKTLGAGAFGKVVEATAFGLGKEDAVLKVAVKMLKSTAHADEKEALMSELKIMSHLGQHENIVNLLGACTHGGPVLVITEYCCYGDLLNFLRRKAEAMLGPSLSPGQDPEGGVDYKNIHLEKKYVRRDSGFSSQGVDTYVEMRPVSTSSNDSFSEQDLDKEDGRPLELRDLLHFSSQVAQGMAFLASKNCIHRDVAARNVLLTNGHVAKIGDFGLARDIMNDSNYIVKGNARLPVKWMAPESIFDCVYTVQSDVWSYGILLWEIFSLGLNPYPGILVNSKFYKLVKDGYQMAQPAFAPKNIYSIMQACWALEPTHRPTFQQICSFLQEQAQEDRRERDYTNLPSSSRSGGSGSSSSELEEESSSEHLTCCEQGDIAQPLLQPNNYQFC

[8] = target: ALK tyrosine kinase receptor (Homo sapiens, UniProt Q9UM73); test: Inhibition of human ALK assessed as residual activity at 10 uM using poly[Glu:Tyr] (4:1) as substrate preincubated for 20 mins followed by [gamma-33P]-ATP addition and measured after 120 mins by Hotspot assay relative to control
Sequence of ALK tyrosine kinase receptor (Q9UM73 19-1620 limits assumed): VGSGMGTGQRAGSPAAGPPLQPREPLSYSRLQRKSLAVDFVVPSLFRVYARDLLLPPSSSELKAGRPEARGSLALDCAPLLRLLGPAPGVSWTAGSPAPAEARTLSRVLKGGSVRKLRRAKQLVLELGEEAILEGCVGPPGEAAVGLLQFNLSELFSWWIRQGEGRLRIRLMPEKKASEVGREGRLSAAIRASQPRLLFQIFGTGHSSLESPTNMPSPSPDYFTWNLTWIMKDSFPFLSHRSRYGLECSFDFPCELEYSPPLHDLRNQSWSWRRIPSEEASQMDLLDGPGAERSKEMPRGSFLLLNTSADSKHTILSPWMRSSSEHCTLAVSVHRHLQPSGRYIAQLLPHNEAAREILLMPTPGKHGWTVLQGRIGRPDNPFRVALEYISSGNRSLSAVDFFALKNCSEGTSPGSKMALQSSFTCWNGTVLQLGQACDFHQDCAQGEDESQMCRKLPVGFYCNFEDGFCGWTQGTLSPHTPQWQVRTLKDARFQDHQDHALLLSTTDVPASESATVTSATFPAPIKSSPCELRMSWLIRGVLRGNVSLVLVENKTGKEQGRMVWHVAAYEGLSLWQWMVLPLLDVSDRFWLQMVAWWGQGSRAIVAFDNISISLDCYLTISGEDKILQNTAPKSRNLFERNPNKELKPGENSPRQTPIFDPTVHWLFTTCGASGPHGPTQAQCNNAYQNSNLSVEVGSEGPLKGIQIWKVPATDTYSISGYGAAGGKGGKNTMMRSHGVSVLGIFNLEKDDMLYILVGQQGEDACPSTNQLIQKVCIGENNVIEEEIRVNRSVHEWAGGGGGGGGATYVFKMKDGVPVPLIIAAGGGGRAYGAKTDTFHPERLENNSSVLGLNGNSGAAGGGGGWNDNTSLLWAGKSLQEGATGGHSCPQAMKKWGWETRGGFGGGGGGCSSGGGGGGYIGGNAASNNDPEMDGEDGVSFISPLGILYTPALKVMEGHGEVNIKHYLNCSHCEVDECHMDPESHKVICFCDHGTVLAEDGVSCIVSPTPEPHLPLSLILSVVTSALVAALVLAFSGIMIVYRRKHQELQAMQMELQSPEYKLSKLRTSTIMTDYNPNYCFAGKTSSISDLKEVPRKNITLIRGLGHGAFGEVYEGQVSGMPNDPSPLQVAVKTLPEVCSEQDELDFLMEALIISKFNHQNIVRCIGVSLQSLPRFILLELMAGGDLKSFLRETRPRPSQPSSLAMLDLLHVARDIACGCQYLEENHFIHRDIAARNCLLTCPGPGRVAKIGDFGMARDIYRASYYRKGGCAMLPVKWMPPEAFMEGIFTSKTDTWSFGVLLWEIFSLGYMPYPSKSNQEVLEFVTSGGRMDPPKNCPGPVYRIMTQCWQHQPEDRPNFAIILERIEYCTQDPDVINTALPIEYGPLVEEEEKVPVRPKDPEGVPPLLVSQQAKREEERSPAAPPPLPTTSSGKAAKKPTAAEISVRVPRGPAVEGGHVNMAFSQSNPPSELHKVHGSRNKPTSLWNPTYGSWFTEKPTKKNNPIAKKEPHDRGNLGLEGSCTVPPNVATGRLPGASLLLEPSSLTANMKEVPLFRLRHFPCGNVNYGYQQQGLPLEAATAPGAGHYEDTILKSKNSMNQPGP

[9] = target: T1, Tyrosine-protein kinase ABL1; test: Inhibition of human ABL1 assessed as residual activity at 10 uM using EAIYAAPFAKKK as substrate preincubated for 20 mins followed by [gamma-33P]-ATP addition and measured after 120 mins by Hotspot assay relative to control
[10] = target: Platelet-derived growth factor receptor alpha (Homo sapiens, UniProt P16234); test: Inhibition of human PDGFRalpha using poly[Glu:Tyr] (4:1) as substrate preincubated for 20 mins followed by [gamma-33P]-ATP addition and measured after 120 mins by Hotspot assay
MV4-11 [11] = test: Growth inhibition of human MV4-11 cells harboring FLT3 ITD mutant at 10 uM after 72 hrs by CellTiter-Glo assay relative to control; assay type: functional; conditions: MV4-11, 72 h, read-out: GI
MV4-11 [12] = test: Induction of apoptosis in human MV4-11 cells assessed as viable cells at 0.05 uM after 24 hrs by Annexin V-FITC/propidium iodide staining based flow cytometric analysis (reference value: 95.19%); assay type: functional; conditions: MV4-11, 24 h, read-out: Activity
[13] = target: Dual specificity mitogen-activated protein kinase kinase 1 (Homo sapiens) (UniProt Q02750); test: Inhibition of human MEK1 assessed as residual activity at 10 uM using ERK2 as substrate preincubated for 20 mins followed by [gamma-33P]-ATP addition and measured after 120 mins by Hotspot assay relative to control
Sequence of Dual specificity mitogen-activated protein kinase kinase 1 (Homo sapiens) (Q02750 whole entry): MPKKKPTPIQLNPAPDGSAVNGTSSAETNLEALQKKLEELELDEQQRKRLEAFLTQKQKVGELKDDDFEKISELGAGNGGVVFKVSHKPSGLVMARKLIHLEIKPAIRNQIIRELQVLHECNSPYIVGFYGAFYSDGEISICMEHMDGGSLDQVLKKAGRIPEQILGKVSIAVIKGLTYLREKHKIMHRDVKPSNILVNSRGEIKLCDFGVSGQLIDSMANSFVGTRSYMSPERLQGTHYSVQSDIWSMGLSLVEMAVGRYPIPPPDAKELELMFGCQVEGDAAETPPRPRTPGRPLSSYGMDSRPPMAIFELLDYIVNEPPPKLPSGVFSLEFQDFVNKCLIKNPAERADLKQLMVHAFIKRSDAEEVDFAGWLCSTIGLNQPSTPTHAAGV

HL-60 = test: Growth inhibition of human HL60 cells harboring WT FLT3 at 10 uM after 72 hrs by CellTiter-Glo assay relative to control; assay type: functional; conditions: HL-60, 72 h, read-out: GI
MV4-11 [14] = test: Induction of apoptosis in human MV4-11 cells assessed as viable cells at 1 uM after 24 hrs by Annexin V-FITC/propidium iodide staining based flow cytometric analysis (reference value: 95.19%); assay type: functional; conditions: MV4-11, 24 h, read-out: Activity
[15] = target: Tyrosine-protein kinase ABL1 (Homo sapiens, UniProt P00519, F317I); test: Binding affinity to human phosphorylated ABL1 F317I mutant (S229 to K512 residues) expressed in mammalian expression system after 60 mins by Kinomescan method
[16] = target: Serine/threonine-protein kinase Nek2 (Homo sapiens, UniProt P51955); test: Inhibition of human NEK2 using MBP as substrate preincubated for 20 mins followed by [gamma-33P]-ATP addition and measured after 120 mins by Hotspot assay
Sequence of Serine/threonine-protein kinase Nek2 (P51955 whole entry): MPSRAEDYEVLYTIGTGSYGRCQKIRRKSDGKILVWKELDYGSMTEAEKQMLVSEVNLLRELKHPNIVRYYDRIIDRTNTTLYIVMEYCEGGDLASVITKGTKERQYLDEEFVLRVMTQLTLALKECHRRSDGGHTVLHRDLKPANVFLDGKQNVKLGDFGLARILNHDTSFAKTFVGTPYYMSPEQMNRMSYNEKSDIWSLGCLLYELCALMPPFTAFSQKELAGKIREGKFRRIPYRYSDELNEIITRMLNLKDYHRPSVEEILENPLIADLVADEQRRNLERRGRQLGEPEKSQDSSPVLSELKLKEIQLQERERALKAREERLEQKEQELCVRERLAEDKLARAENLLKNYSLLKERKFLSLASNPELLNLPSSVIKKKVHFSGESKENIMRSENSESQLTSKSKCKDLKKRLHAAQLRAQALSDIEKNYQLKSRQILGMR

MV4-11 [17] = test: Induction of apoptosis in human MV4-11 cells assessed as late apoptotic cells at 0.1 uM after 24 hrs by Annexin V-FITC/propidium iodide staining based flow cytometric analysis (reference value: 1.42%); assay type: functional
[18] = target: Tyrosine-protein kinase ABL1 (Homo sapiens, UniProt P00519, T315I); test: Binding affinity to human phosphorylated ABL1 T315I mutant (S229 to K512 residues) expressed in mammalian expression system after 60 mins by Kinomescan method
[19] = target: Mitogen-activated protein kinase 8 (Homo sapiens) (UniProt P45983); test: Inhibition of human JNK1 assessed as residual activity at 10 uM using ATF2 as substrate preincubated for 20 mins followed by [gamma-33P]-ATP addition and measured after 120 mins by Hotspot assay relative to control
Sequence of Mitogen-activated protein kinase 8 (Homo sapiens) (P45983 whole entry): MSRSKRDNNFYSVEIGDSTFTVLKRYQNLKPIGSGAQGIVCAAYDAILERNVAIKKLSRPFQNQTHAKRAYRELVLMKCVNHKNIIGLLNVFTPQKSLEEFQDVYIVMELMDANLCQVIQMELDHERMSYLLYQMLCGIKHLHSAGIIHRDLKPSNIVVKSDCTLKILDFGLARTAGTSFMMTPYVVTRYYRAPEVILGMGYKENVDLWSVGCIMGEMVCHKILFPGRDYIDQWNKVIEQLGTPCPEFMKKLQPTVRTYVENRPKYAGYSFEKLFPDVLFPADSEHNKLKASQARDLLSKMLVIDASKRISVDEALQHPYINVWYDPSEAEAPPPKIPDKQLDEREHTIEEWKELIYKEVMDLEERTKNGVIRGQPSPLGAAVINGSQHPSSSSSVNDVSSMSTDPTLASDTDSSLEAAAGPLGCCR

[20] = target: T1, Tyrosine-protein kinase ABL1; test: Inhibition of human ABL1 using EAIYAAPFAKKK as substrate preincubated for 20 mins followed by [gamma-33P]-ATP addition and measured after 120 mins by Hotspot assay
[21] = target: CDK9/cyclin T1 (Homo sapiens) (UniProt O60563+P50750); test: Inhibition of human CDK9/cyclin-T1 assessed as residual activity at 10 uM using KTFCGTPEYLAPEVRREPRILSEEEQEMFRDFDYIADWC as substrate preincubated for 20 mins followed by [gamma-33P]-ATP addition and measured after 120 mins by Hotspot assay relative to control; assay type: protein-complex assay
CDK6/cyclin D1 = CDK6/cyclin D1 (Homo sapiens, UniProt Q00534); test: Inhibition of human CDK6/cyclin-D1 using RB protein as substrate preincubated for 20 mins followed by [gamma-33P]-ATP addition and measured after 120 mins by Hotspot assay; assay type: protein-complex assay
MV4-11 [22] = test: Induction of apoptosis in human MV4-11 cells after 24 hrs by Annexin V-FITC/propidium iodide staining based flow cytometric analysis; assay type: functional, cell-based
[23] = target: Epidermal growth factor receptor (Homo sapiens) (UniProt P00533); test: Inhibition of human EGFR assessed as residual activity at 10 uM using poly[Glu:Tyr] (4:1) as substrate preincubated for 20 mins followed by [gamma-33P]-ATP addition and measured after 120 mins by Hotspot assay relative to control
[24] = target: Discoidin domain-containing receptor 2 (Homo sapiens, UniProt Q16832); test: Inhibition of human DDR2 using KKSRGDYMTMQIG as substrate preincubated for 20 mins followed by [gamma-33P]-ATP addition and measured after 120 mins by Hotspot assay

**Q.** For `CN1CCC(Nc2ccc(C(=O)Nc3cc(-c4cc(C#N)cs4)n[nH]3)cc2)CC1`, which Kd [1] is on record?
**A.** 0.28 µM

**Q.** What about the Kd [2] of the same compound?
**A.** 0.52 µM

**Q.** What about the Activity (MV4-11 [3]) of the same compound?
**A.** 17.09%

**Q.** What about the Activity (MV4-11 [4]) of the same compound?
**A.** 28.65%

**Q.** And the inhibition of growth at 10 µM (K562)?
**A.** 1.3%

**Q.** And the Activity [5]?
**A.** 14.4%

**Q.** What about the Activity [6] of the same compound?
**A.** 87.6%

**Q.** What about the Kd [7] of the same compound?
**A.** 0.084 µM

**Q.** What about the Activity [8] of the same compound?
**A.** 23%

**Q.** What about the Activity [9] of the same compound?
**A.** 8.32%

**Q.** And the IC50 [10]?
**A.** 3.64 µM

**Q.** What about the inhibition of growth at 10 µM (MV4-11 [11]) of the same compound?
**A.** 89.9%

**Q.** And the viability at 0.05 µM (MV4-11 [12])?
**A.** 59.6%

**Q.** What about the Activity [13] of the same compound?
**A.** 91.9%

**Q.** What about the inhibition of growth at 10 µM (HL-60) of the same compound?
**A.** 10.2%

**Q.** And the viability at 1 µM (MV4-11 [14])?
**A.** 34.5%

**Q.** What about the Kd [15] of the same compound?
**A.** > 10 µM

**Q.** And the IC50 [16]?
**A.** 2.09 µM

**Q.** What about the Activity (MV4-11 [17]) of the same compound?
**A.** 15.97%

**Q.** And the Kd [18]?
**A.** 0.5 µM

**Q.** And the Activity [19]?
**A.** 89.6%

**Q.** What about the IC50 ([20]; read-out: IC50) of the same compound?
**A.** 0.931 µM

**Q.** And the IC50 ([20]; read-out: pIC50 (converted))?
**A.** 1 µM

**Q.** And the Activity [21]?
**A.** 68.7%

**Q.** What about the IC50 (CDK6/cyclin D1) of the same compound?
**A.** 3.06 µM

**Q.** What about the Activity (MV4-11 [22]) of the same compound?
**A.** Dose-dependent effect

**Q.** And the Activity [23]?
**A.** 65.5%

**Q.** And the IC50 [24]?
**A.** 3.47 µM
